# Patent US4424225A, “Thienobenzodiazepinones, pharmaceutical compositions thereof and method of use thereof” (Dr. Karl Thomae GmbH, priority 1982, dated 1984)
# pIC50: −log10 of the molar value.
# Tests used:
# [1] = target: T1, muscarinic receptors (smooth muscle of the fundus of the stomach) (Rattus norvegicus, UniProt P10980); experiment: Binding to muscarinic receptors, displacement of 3H-N-methylscopolamine, smooth muscle of the fundus of the stomach; set-up: species or system rat (male Sprague-Dawley); details: 0.3 n molar 3H-NMS, 30° C., 45 minutes, pH 7.4, read-out: Receptor Binding Tests IC50, Smooth Muscle Fundus of Stomach
# T1 construct: The smooth muscle of the fundus of the stomach was separated from the mucous membrane of the stomach; from tissue; host or cells: homogenized smooth muscle of the stomach fundus of male Sprague-Dawley rats
# T1 sequence (P10980 1-466): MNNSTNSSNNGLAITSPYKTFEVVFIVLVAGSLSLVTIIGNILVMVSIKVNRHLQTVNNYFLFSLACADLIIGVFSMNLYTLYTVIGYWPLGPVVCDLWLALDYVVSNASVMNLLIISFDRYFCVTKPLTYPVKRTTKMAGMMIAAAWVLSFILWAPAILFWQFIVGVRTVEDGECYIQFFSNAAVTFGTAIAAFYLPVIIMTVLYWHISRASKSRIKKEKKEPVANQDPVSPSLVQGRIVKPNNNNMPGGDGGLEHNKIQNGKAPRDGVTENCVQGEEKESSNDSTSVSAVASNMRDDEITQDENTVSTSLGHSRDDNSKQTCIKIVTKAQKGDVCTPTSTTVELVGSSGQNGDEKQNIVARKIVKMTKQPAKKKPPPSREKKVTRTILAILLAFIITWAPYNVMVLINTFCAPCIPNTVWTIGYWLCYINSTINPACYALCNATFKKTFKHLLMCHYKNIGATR
# Protocol: (§1) 3. STUDIES OF BINDING TO MUSCARINIC RECEPTORS: DETERMINATION OF THE IC50 VALUE
# (§2) The organ donors were male Sprague-Dawley rats with a body weight of from about 180 to 220 gm each. After the heart, stomach, and cerebral cortex had been removed, the remainder of the operation was carried out in ice-cold Hepes-HCl buffer (pH 7.4; 100 m molar NaCl, 10 m molar MgCl2). The smooth muscle of the fundus of the stomach was separated from the mucous membrane of the stomach and subjected to preliminary homogenization. The whole heart was cut up with scissors. All the organs were then homogenized in a Potter apparatus.
# (§3) For the binding test, the homogenized organs were diluted as follows:
# Smooth muscle of the fundus of the stomach: 1:100
# The homogenized organ preparations were incubated at a specific concentration of the radioligand and with a series of concentrations of the non-radioactive test substances in an Eppendorf centrifuge tube at 30° C. The duration of incubation was 45 minutes. […] After incubation had been brought to an end by centrifuging at 14000 g, the radioactivity in the pellet was determined. […] The proportion of non-specific binding was defined as the radioactivity which was bound in the presence of 1μ molar quinuclidinylbenzylate. […] The IC50 values of the non-labelled test substances were determined graphically. […]
# [2] = target: muscarinic receptors (cerebral cortex); experiment: Binding to muscarinic receptors, displacement of 3H-N-methylscopolamine, cerebral cortex; set-up: species or system rat (male Sprague-Dawley); details: 0.3 n molar 3H-NMS, 30° C., 45 minutes, pH 7.4, read-out: Receptor Binding Tests IC50, Cortex
# Protocol: as §1, §2, §3
# The homogenized organ preparations were incubated at a specific concentration of the radioligand and with a series of concentrations of the non-radioactive test substances in an Eppendorf centrifuge tube at 30° C. The duration of incubation was 45 minutes. The substance 0.3 n molar ^3 H-N-methylscopolamine (^3 H-NMS) was used as the radioligand. After incubation had been brought to an end by centrifuging at 14000 g, the radioactivity in the pellet was determined. […] The proportion of non-specific binding was defined as the radioactivity which was bound in the presence of 1μ molar quinuclidinylbenzylate. […] The IC50 values of the non-labelled test substances were determined graphically. […]
# Testing for mydriasis = details: rat, in vivo, iv; pupil observed for 10 minutes
# Protocol: The effect of the test substances on the pupil size in rats was investigated as follows:
# The substances were administered intravenously to groups of 10 animals in at least three uniformly graduated doses. The pupil size was then observed for 10 minutes to see if there were any changes (mydriasis or miosis). […] The percentage of test animals in which mydriasis occurred was determined. The ED50 values were again determined using the method of LITCHFIELD and WILCOXON (see above).
# [3] = tested on: oxotremorine-induced lesions in the mucous membrane of the stomach (muscarinic receptors); experiment: Oxotremorine test: protection against oxotremorine-induced lesions of the gastric mucous membrane; format: in vivo, rat (female albino, Crl: COBS-CD (SD) BR); details: Rattus norvegicus, iv, 15 minutes before oxotremorine 0.62 mg/kg i.v., neostigmine 1 mg/kg oral
# Protocol: (§4) Oxotremorine, a specific agonist for muscarinic receptors, produces lesions in the mucous membrane of the stomach in rats and increases their secretion of saliva. This test method was chosen so that any selective activity of an anti-muscarinic substance on the stomach could be identified.
# Ten female albino rats (of the Crl: COBS-CD (SD) BR strain) with a body weight of from 120 to 150 gm apiece were used in each treatment group and were kept without food for 24 hours before the start of the test but given free access to drinking water. […]
# (§5) Each antimuscarinic substance was administered intravenously in uniformly graduated doses 15 minutes before the oxotremorine was administered. Control groups were given corresponding quantities of the solvent and suspension agent instead of the test substance. […]
# (§6) The ED50 values were determined using the method described by LITCHFIELD and WILCOXON (J. Pharmacol. Exp. Ther. 96, 99, 1949).
# The effects on lesions of the mucous membrane of the stomach were evaluated as follows:
# The lesions of the gastric mucous membrane were produced by intravenous injection of 0.62 mg/kg of oxotremorine 30 minutes after oral administration of 1 mg/kg of neostigmine (a cholinesterase inhibitor). […] The protective effect of the test substances was expressed as the percentage inhibition (percentage of animals without lesions). […]
# [4] = Oxotremorine test: inhibition of oxotremorine-induced secretion of saliva; set-up: species or system rat (female albino, Crl: COBS-CD (SD) BR); details: rat, in vivo, iv, 15 minutes before oxotremorine 0.083 mg/kg i.v.; read-out: Oxotremorine Test, Inhibition of Salivation ED50
# Protocol: as §4
# Ten female albino rats (of the Crl: COBS-CD (SD) BR strain) with a body weight of from 120 to 150 gm apiece were used in each treatment group and were kept without food for 24 hours before the start of the test but given free access to drinking water.
# To determine, in preliminary tests, the muscarinic effect of oxotremorine on each of the symptoms studied, a dosage/activity curve was drawn up with at least three dosages for each symptom.
# When the antimuscarinic substances were tested, the dosage of oxotremorine which triggered the symptom in question in 90 to 100% of the animals in the preliminary tests was used.
# Secretion of saliva: 0.083 mg/kg i.v.
# as §5, §6
compound,measurement,setting,value
"CN1CCC(CC(=O)N2c3ccccc3NC(=O)c3cscc32)CC1 [A, 4,9-Dihydro-4-[(1-methyl-4-piperidinyl)acetyl]-10H-thieno[3,4-b][1,5]benzodiazepin-10-one]",pIC50,[1],7.12
same,pIC50,[2],7.70
same,ED50 at 10 min,Testing for mydriasis,0.03 mg/kg
same,ED50,"[3]; read-out: Oxotremorine Test, Anti-ulcerative Effect ED50",0.0078 mg/kg
same,ED70,"[3]; read-out: Oxotremorine Test, Anti-ulcerative Effect ED70",0.014 mg/kg
same,ED50 at 0.25 h,[4],0.0215 mg/kg
